Target: FAK kinase (catalytic construct FAK(410-689)) (Homo sapiens (Human), UniProt Q05397)
Test: FAKcd kinase ELISA (inhibition of poly-glu-tyr phosphorylation by FAK(410-689))
Format: biochemical
Conditions: 50 μM final ATP
Experimental: A. In-Vitro Activity of FAK:
The assay protocol has three parts:
3. […] 4. […] 5. […] 6. […] 7. […] 9. […] 10. […] 12. […] 13. […] 14. Aliquot the FAKcd protein and store frozen at −80° C. II. FAK Activation 1. […] At t120 (t=120 minutes), add 10 μl of 150 mM ATP. […] Add 180 μl aliquots of the desalted material to NiNTA spin column and incubate on spin column 4. […] FAKcd Kinase ELISA 1. Coat 96-well Nunc MaxiSorp plates with poly-glu-tyr (pGT) at […]: Prepare 10 μg/ml of pGT in PBS and aliquot 100 μl/well. Incubate the plates at 37° C. overnight, aspirate the supernatant, wash the plates 3 times with Wash Buffer, and flick to dry before storing at 4° C. 2. Prepare compound stock solutions of 2.5 mM in 100% DMSO. The stocks are subsequently diluted to 60× of the final concentration in 100% DMSO, and diluted 1:5 in Kinase Phosphorylation Buffer. 3. […] Add 80 μl to each well for a final ATP concentration of 50 μM. 4. […] 5. Dilute on ice, FAKcd protein to 1:1000 in Kinase Phosphorylation Buffer. Dispense 30 μl per well. 6. Note: Linearity and the appropriate dilution must be pre-determined for each batch of protein. The enzyme concentration selected should be such that quantitation of the assay signal will be approximately 0.8-1.0 at OD450, and in the linear range of the reaction rate. 7. Prepare both a No ATP control (noise) and a No Compound Control (Signal): 8. (Noise) One blank row of wells receives 10 μl of 1:5 diluted compounds in DMSO, 80 μl of Phosphorylation buffer (minus ATP), and 30 μl FAKcd solution. 9. […] 10. Incubate reaction at room temperature for 15 minutes with gentle shaking on a plate shaker. 11. Terminate the reaction by aspirating off the reaction mixture and washing 3 times with wash buffer. 12. Dilute phospho-tyrosine HRP-conjugated (pY20HRP) antibody to 0.250 μg/ml (1:1000 of Stock) in blocking buffer. Dispense 100 μl per well, and incubate with shaking for 30 minutes at 25°. 13. Aspirate the supernatant and wash the plate 3 times with wash buffer. 14. Add 100 μl per well of room temperature TMB solution to initiate color development. Color development is terminated after approximately 15-30 sec. by the addition of 100 μl of 0.09M H2SO4 per well. 15. The signal is quantitated by measurement of absorbance at 450 nm on the BioRad ricroplate reader or a microplate reader capable of reading at OD450. 16. Inhibition of tyrosine kinase activity would result in a reduced absorbance signal. […] The values are reported as IC50s, μM concentration. FAK Inducible cell-based ELISA: Final Protocol Materials: […]

Chain of FAK kinase (catalytic construct FAK(410-689)) (Q05397 410-689): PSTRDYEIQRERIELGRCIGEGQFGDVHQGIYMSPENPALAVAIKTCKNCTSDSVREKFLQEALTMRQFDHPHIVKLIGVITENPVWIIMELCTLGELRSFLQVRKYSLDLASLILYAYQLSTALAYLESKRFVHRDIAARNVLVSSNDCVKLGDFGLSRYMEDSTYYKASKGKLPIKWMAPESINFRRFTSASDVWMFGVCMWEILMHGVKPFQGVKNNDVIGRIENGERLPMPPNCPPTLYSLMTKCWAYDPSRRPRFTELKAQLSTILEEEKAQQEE

Structure (SMILES) | IC50 [nM]
Cc1cccc(N(C)S(C)(=O)=O)c1CNc1nc(Nc2ccccc2)ncc1C(F)(F)F [Compound 67, N-[2-({[2-anilino-5-(trifluoromethyl)pyrimidin-4-yl]amino}methyl)-3-methylphenyl]-N-methylmethanesulfonamide] | 0.6
Cc1cccc(NS(C)(=O)=O)c1CNc1nc(Nc2ccccc2)ncc1C(F)(F)F [Compound 69, N-[2-({[2-anilino-5-(trifluoromethyl)pyrimidin-4-yl]amino}methyl)-3-methylphenyl]methane-sulfonamide] | 0.6
Cc1cnc(N(C)S(C)(=O)=O)c(CNc2nc(Nc3ccccc3)ncc2C(F)(F)F)c1 [Compound 70, N-[3-({[2-anilino-5-(trifluoromethyl)pyrimidin-4-yl]amino}methyl)-5-methylpyridin-2-yl]-N-methylmethanesulfonamide] | 0.6
CN(c1nccnc1CNc1nc(Nc2ccc(C(N)=O)cc2)ncc1C(F)(F)F)S(C)(=O)=O [Compound 71, 4-({4-[({3-[methyl(methylsulfonyl)amino]pyrazin-2-yl}methyl)amino]-5-(trifluoromethyl)pyrimidin-2-yl}amino)benzamide] | 0.6
CN(c1cccnc1CNc1nc(Nc2ccc(C(N)=O)cc2)ncc1C(F)(F)F)S(C)(=O)=O [Compound 73, 4-({4-(({3-[methyl(methylsulfonyl)amino]pyridin-2-yl}methyl)amino]-5-(trifluoromethyl)pyrimidin-2-yl}amino)benzamide] | 0.6
CN(c1nccnc1CNc1nc(Nc2ccccc2)ncc1C(F)(F)F)S(C)(=O)=O [Compound 75, N-[3-({[2-anilino-5-(trifluoromethyl)pyrimidin-4-yl]amino}methyl)pyrazin-2-yl]-N-methylmethane-sulfonamide] | 0.6
CN(c1cccnc1CNc1nc(Nc2ccccc2)ncc1C(F)(F)F)S(C)(=O)=O [Compound 76, N-[2-({[2-anilino-5-(trifluoromethyl)pyrimidin-4-yl]amino}methyl)pyridin-3-yl]-N-methylmethane-sulfonamide] | 93
CCNC(=O)c1ccc(Nc2ncc(C(F)(F)F)c(NCc3cccc(S(C)(=O)=O)c3)n2)cc1 [Compound 77, N-ethyl-4-{[4-{[3-(methylsulfonyl)benzyl]amino}-5-(trifluoromethyl)pyrimidin-2-yl]amino}benzamide] | 0.6
Cc1ccnc(N(C)S(C)(=O)=O)c1CNc1nc(Nc2ccccc2)ncc1C(F)(F)F [Compound 78, N-[3-({[2-anilino-5-(trifluoromethyl)pyrimidin-4-yl)amino}methyl)-4-methylpyridin-2-yl]-N-methylmethanesulfonamide] | 0.6
Cc1ncc(CNc2nc(Nc3ccccc3)ncc2C(F)(F)F)c(N(C)S(C)(=O)=O)n1 [Compound 79, N-[5-({[2-anilino-5-(trifluoromethyl)pyrimidin-4-yl]amino}methyl)-2-methylpyrimidln-4-yl]-N-methylmethanesulfonamide] | 2.62
Cc1cc(N(C)S(C)(=O)=O)c(CNc2nc(Nc3ccccc3)ncc2C(F)(F)F)cn1 [Compound 80, N-[5-({[2-anilino-5-(trifluoromethyl)pyrimidin-4-yl]amino}methyl)-2-methylpyridin-4-yl]-N-methylmethanesulfonamide] | 0.59
CN(c1ncccc1CNc1nc(Nc2ccc(C(F)(F)F)nc2)ncc1C(F)(F)F)S(C)(=O)=O [Compound 81, N-methyl-N-[3-({[5-(trifluoromethyl)-2-{[6-(trifluoromethyl)pyridin-3-yl]amino}pyrimidin-4-yl]amino}methyl)pyridin-2-yl]methanesulfonamide] | 15.8
Cc1cnc(N(C)S(C)(=O)=O)c(CNc2nc(Nc3ccc(C(N)=O)cc3)ncc2C(F)(F)F)c1 [Compound 82, 4-({4-(({5-methyl-2-[methyl(methylsulfonyl)amino]pyridin-3-yl}methyl)amino]-5-(trifluoromethyl)pyrimidin-2-yl}amino)benzamide] | 0.6
Cc1ccnc(N(C)S(C)(=O)=O)c1CNc1nc(Nc2ccc(C(N)=O)cc2)ncc1C(F)(F)F [Compound 83, 4-({4-[({4-methyl-2-[methyl(methylsulfonyl)amino]pyrldin-3-yl}methyl)amino]-5-(trifluoromethyl)pyrimidin-2-yl}amino)benzamide] | 0.6
Cc1ncc(CNc2nc(Nc3ccc(C(N)=O)cc3)ncc2C(F)(F)F)c(N(C)S(C)(=O)=O)n1 [Compound 84, 4-({4-[({2-methyl-4-[methyl(methylsulfonyl)amino]pyrimidin-5-yl}methyl)amino]-5-(trifluoromethyl)pyrimidin-2-yl}amino)benzamide] | 1.71
Cc1cc(N(C)S(C)(=O)=O)c(CNc2nc(Nc3ccc(C(N)=O)cc3)ncc2C(F)(F)F)cn1 [Compound 85, 4-({4-[({6-methyl-4-[methyl(methylsulfonyl)amino]pyridin-3-yl}methyl)amino]-5-(trifluoromethyl)pyrimidin-2-yl}amino)benzamide] | 0.84
CNC(=O)c1cccc(Nc2ncc(C(F)(F)F)c(NCc3cccnc3N(C)S(C)(=O)=O)n2)c1 [Compound 86, N-methyl-3-({4-[({2-[methyl(methylsulfonyl)amino]pyridin-3-yl}methyl)amino]-5-(trifluoromethyl)pyrimidin-2-yl}amino)benzamide] | 1.61
CN(c1ncccc1CNc1nc(Nc2cccc(C(=O)Nc3cccc(C(F)(F)F)c3)c2)ncc1C(F)(F)F)S(C)(=O)=O [Compound 88, 3-({4-[({2-[methyl(methylsulfonyl)amino]pyridin-3-yl}methyl)amino]-5-(trifluoromethyl)pyrimidin-2-yl}amino)-N-[3-(trifluoromethyl)phenyl]benzamide] | 21.5
CCNC(=O)c1ccc(Nc2ncc(C(F)(F)F)c(NCc3ccc(C)nc3N(C)S(C)(=O)=O)n2)cc1 [Compound 89, N-ethyl-4-({4-[({6-methyl-2-[methyl(rnethylsu!fonyl)amino]pyridin-3-yl}methyl)amino]-5-(trifluoromethyl)pyrimidin-2-yl}amino)benzamide] | 0.6
CN(c1ncccc1CNc1nc(Nc2cccc(C(=O)N3CC(O)C3)c2)ncc1C(F)(F)F)S(C)(=O)=O [Compound 90, N-[3-({[2-({3-{(3-hydroxyazetidin-1-yl)carbonyl]phenyl}amino)-5-(trifluoromethyl)pyrimidin-4-yl]amino}methyl)pyridin-2-yl]-N-methylmethane-sulfonamide] | 0.72
CCn1nccc1Nc1ncc(C(F)(F)F)c(NCc2cccnc2N(C)S(C)(=O)=O)n1 [Compound 91, N-{3-[({2-[(1-ethyl-1H-pyrazol-5-yl)amino]-5-(trifluoromethyl)pyrimidin-4-yl}amino)methyl]pyridin-2-yl}-N-methylmethane-sulfonamide] | 188
COc1cc(Nc2ncc(C(F)(F)F)c(NCc3cccnc3N(C)S(C)(=O)=O)n2)ccn1 [Compound 93, N-{3-[({2-[(2-methoxypyridin-4-yl)amino]-5-(trifluoromethyl)pyrimidin-4-yl}amino)methyl]pyridin-2-yl}-N-methylmethane-sulfonamide] | 0.6
Cc1cnccc1Nc1ncc(C(F)(F)F)c(NCc2cccnc2N(C)S(C)(=O)=O)n1 [Compound 94, N-methyl-N-{3-[({2-[(3-methylpyridin-4-yl)amino]-5-(trifluoromethyl)pyrimidin-4-yl)amino)methyl]pyridin-2-yl]methanesulfonamide] | 8.01
CN(c1ncccc1CNc1nc(Nc2ccc(C#N)cc2)ncc1C(F)(F)F)S(C)(=O)=O [Compound 95, N-{3-[({2-[(4-cyanophenyl)amino]-5-(trifluoromethyl)pyrimidin-4-yl}amino)methyl]pyridin-2-yl}-N-methylmethane-sulfonamide] | 0.6
CCNC(=O)c1ccc(Nc2ncc(C(F)(F)F)c(NCc3ncccc3N(C)S(C)(=O)=O)n2)cc1 [Compound 97, N-ethyl-4-({4-[({3-[methyl(methylsulfonyl)amino]pyridin-2-yl}methyl)amino]-5-(trifluoromethyl)pyrimidin-2-yl}amino)benzamide] | 0.59
